By half-life is commonly meant the time needed for the level to fall by half in the phase considered.

Series [1] has as its system serum calcium. Conditions: 7.5 mg/kg, 2 h infusion x3 days; cited from earlier work.
Series [2] deals with patients with PMS. The following applies: double blind study; cited from earlier work.
Series [3] deals with serum calcium. The following applies: injections of 4-8 IU/kg (IM or SubQ), most patients; cited from earlier work.
Series [4] deals with blood calcium levels. Conditions: more potent than human calcitonin; cited from earlier work.
Series [5] is described as follows: serum estrogen levels and half life with estradiol transdermal patch in postmenopausal women (Ginsburg et al.). Format: in vivo. The following applies: female, human, other: transdermal patch, 0.1 mg, after removal of patch, worked out from mean half life, read-out: terminal half life (converted). An excerpt:
Exogenous estrogen can be used to inhibit osteoclast activity and bone resorption by the “triple whammy” previously disclosed, inhibiting osteoclast activity by binding to osteoblasts and 1) increasing their output of OPG and 2) suppressing their RANKL production and 3) prolonging the lives of osteoblasts while simultaneously promoting osteoclast apoptosis. […] The dose is low enough and for a short enough period of time that it should not materially interfere with any of the menstrual processes. Alternatively, the patch may also be cut in half to obtain a half dose (0.05 ng/ml) cushion factor. Estrogen is available in oral, injectable, and patch forms from numerous suppliers and include Estrace, Cenestin, Enjuvia, Femtrace, Gynodiol, Menest etc. . . .
SERM/Estradiol: If the patient is on birth control, which is basically 3 weeks of estrogen followed by 1 week of sugar pills, the SERM raloxifene could be substituted for the sugar pills. Alternatively, low levels of estrogen could be substituted for one or more of the sugar pills, with the goal of keeping the serum levels around 0.1 ng/ml, without the sharp transition drop, and without the potential for interfering with progression of menstruation. Alternatively, an estrogen patch may be used. […]

A short description of series [6]: testosterone levels with Androderm transdermal patch. Conditions: human, in vivo, other: transdermal patch. The source says: When androgens such as testosterone bind to osteoblast receptors, the osteoblast is stimulated to form new bone (i.e. move calcium into bone). […] Accordingly, administration of androgens such as testosterone, or administration of endocrine hormones that upregulate indigenous production of androgens (e.g. in males, luteinizing hormone, gonadotropin/luteinizing hormone releasing hormone), can be used to reduce extracellular calcium levels by moving calcium back into bone. Testosterone USP is natural testosterone that has been approved by the United States Pharmacopoeia and is available as a bulk chemical. Testosterone is well-absorbed from transdermal (topical) creams and gels. Dosage forms also include sublingual drops, buccal or sublingual troches or tablet triturates. […] In the form known as Testosterone Cypionate, testosterone can be administered by intramuscular injection every 1-3 weeks. WatsonPharma's Androderm transdermal 2.5 mg or 5 mg testosterone patch provides a more convenient way to administer testosterone, and provides the ability to administer the testosterone over a desired time frame much more precisely (as will be discussed further in representative examples). Androderm patches can ramp up testosterone levels quickly (e.g. 349 ng/dl within 3 hours, 528 ng/dl within 6 hours, when applied to the back) and can be used for up to 24 hours. […]

Series [7] concerns tryptophan hydroxylase (TPH). Conditions: estrogen treated monkey; cited from earlier work.

Take `CC(O)(P(=O)(O)O)P(=O)(O)O` [etidronate disodium]: in series [1], the duration of efficacy entry is on record as “more than a week”.
For the compound `N[C@@H](Cc1cc(I)c(Oc2cc(I)c(O)c(I)c2)c(I)c1)C(=O)O` [levothyroxine], the “benefit over the placebo” value in series [2] is given as “did not show any benefit over the placebo”.
On to Calcitonin, for which the “drop in serum calcium levels” value in series [3] was 1 to 2 mg/dL.
On to `CC(C)C[C@H](NC(=O)[C@H](CCCCN)NC(=O)CNC(=O)[C@H](CC(C)C)NC(=O)[C@@H](NC(=O)[C@@H]1CSSC[C@H](N)C(=O)N[C@@H](CO)C(=O)N[C@@H](CC(N)=O)C(=O)N[C@@H](CC(C)C)C(=O)N[C@@H](CO)C(=O)N[C@@H]([C@@H](C)O)C(=O)N1)C(C)C)C(=O)N[C@@H](CO)C(=O)N[C@@H](CCC(N)=O)C(=O)N[C@@H](CCC(=O)O)C(=O)N[C@@H](CC(C)C)C(=O)N[C@@H](Cc1c[nH]cn1)C(=O)N[C@@H](CCCCN)C(=O)N[C@@H](CC(C)C)C(=O)N[C@@H](CCC(N)=O)C(=O)N[C@H](C(=O)N[C@@H](Cc1ccc(O)cc1)C(=O)N1CCC[C@H]1C(=O)N[C@@H](CCCNC(=N)N)C(=O)N[C@H](C(=O)N[C@@H](CC(N)=O)C(=O)N[C@H](C(=O)NCC(=O)N[C@@H](CO)C(=O)NCC(=O)N[C@H](C(=O)N1CCC[C@H]1C(N)=O)[C@@H](C)O)[C@@H](C)O)[C@@H](C)O)[C@@H](C)O` [salmon calcitonin], for which the “potency relative to human calcitonin” value in series [4] is given as 40-50 times.
Take `C[C@]12CC[C@@H]3c4ccc(O)cc4CC[C@H]3[C@@H]1CC[C@@H]2O` [estradiol]: the half-life in series [5] was around 9 h.
As for `C[C@]12CC[C@H]3[C@@H](CCC4=CC(=O)CC[C@@]43C)[C@@H]1CC[C@@H]2O` [testosterone], the “time to return to baseline levels after removal of the patch” value in series [6] fell in the range of 3 to 4 h.
Regarding estrogen, the “increase in tryptophan hydroxylase (TPH)” value in series [7] is listed as “nine-fold”.

Values taken from US8197858B2, “Bone microenvironment modulated seizure treatments” (priority 2009, dated 2012).
